Reference: patent US12514852B2 (CINDOME PHARMA, INC., priority 2018, dated 2026)

Experiments:
[1] = system: beagle dogs; test: Dog cardiovascular study, QTc, d4-domperidone capsules (Example 3); type: in vivo; conditions: male dogs; for QTc Percent Change Segment 1 (0-6 hours) / QTc Percent Change Segment 2 (7-24 hours) / QTc change Segment 1 (0-6 hours) / QTc change Segment 2 (7-24 hours): vs time-matched control; for Duration of Effect (hours post dose): QTc
Protocol: Oral suspensions were administered via gavage for comparison purposes. […]
One animal/treatment was dosed each week with at least a 3-day washout period between administrations until each animal received all treatments. See, Table 5. The same 5 animals received all treatments according to a Latin square design with at least a 3-day washout between treatments. Body temperature, blood pressure, heart rate, and the electrocardiogram (ECG) were monitored continuously for at least 2 hours prior to dosing and for at least 24 hours post dose.
Three days prior to the study, the animals were continuously monitored for at least 24 hours for body temperature and cardiovascular endpoints while on the stock colony (10 days prior to the first administration). […] The first 24 hours of the data were used in the calculation of the QTc interval. Body temperature, blood pressure, heart rate (derived from blood pressure and ECG), and the ECG were monitored continuously from at least 2 hours predose until at least 24 hours post dose. Data were collected and analyzed in 1-minute intervals and are reported in 15-minute intervals. The QTc interval was calculated using a procedure based on the method described by Spence (“The heart rate corrected QT interval of conscious beagle dogs: a formula based on analysis of covariance,” Toxicol Sci, 1998; 45:247 258) and modified by Miyazaki and Tagawa (“Rate-correction technique for QT interval in long term telemetry ECG recording in beagle dogs,” Exp. Anim., 2002; 51:465 475). Blood samples (approximately 1 mL) were collected via jugular vein and 8 and 24 hours post dose to confirm exposure.
Table 6 indicates the change (% and ms) from the appropriate time-matched control for each d4-domperidone treatment.

[2] = in vivo; conditions: male, Beagle, dog, plasma, po, 1 mg/kg
[3] = system: beagle dogs; test: Dog cardiovascular study, QTc, non-deuterated domperidone by gavage (Example 3); type: in vivo; conditions: for QTc Maximum % Change / Time of QTc Maximum % Change / QTc Percent Change Segment 1 (0-6 hours) / QTc Percent Change Segment 2 (7-24 hours) / QTc change Segment 1 (0-6 hours) / QTc change Segment 2 (7-24 hours) / QTcVdW increase (Van de Water formula) / Duration of Effect (hours post dose): beagle dogs; for QTc Percent Change Segment 1 (0-6 hours) / QTc Percent Change Segment 2 (7-24 hours) / QTc change Segment 1 (0-6 hours) / QTc change Segment 2 (7-24 hours): vs time-matched control; for Duration of Effect (hours post dose): QTc
Protocol: Oral suspensions were administered via gavage for comparison purposes.
USP. The d4-domperidone formulation was Formulation A, Example 1. […] One animal/treatment was dosed each week with at least a 2-day washout period between administrations until each animal received all treatments. The same 4 animals received treatments according to a Latin square design. Systolic blood pressure, diastolic blood pressure, heart rate and Lead II electrocardiogram were continuously recorded. The measurements started 1.5 hrs prior to the dose administration and all parameters were continuously recorded 24 hrs following the end of dosing of the last animal.
The individual animal correction (QTcVdW) was calculated using Van de Water formula.

In the case of `[2H]c1c([2H])c([2H])c2c([nH]c(=O)n2CCCN2CCC(n3c(=O)[nH]c4cc(Cl)ccc43)CC2)c1[2H]` [d4-domperidone, 1-{3-[4-(5-chloro-2-oxo-2,3-dihydro-1H-1,3-benzodiazol-1-yl)piperidin-1yl]propyl}-2,3-dihydro(4,5,6,7-D4)-1H-1,3-benzodiazol-2-one], the “QTc Maximum % Change” value ([1]; 20 mg capsule) is reported as 4%, the “Time of QTc Maximum % Change” value ([1]; 20 mg capsule) is reported as 3.5 h and the “QTc Percent Change Segment 1 (0-6 hours)” value ([1]; 20 mg capsule) is reported as “+1%”. The “QTc Percent Change Segment 2 (7-24 hours)” value ([1]; 20 mg capsule) was “+0%”, the “QTc change Segment 1 (0-6 hours)” value ([1]; 20 mg capsule) was 3 ms and the “QTc change Segment 2 (7-24 hours)” value ([1]; 20 mg capsule) was 1 ms. The “Time of QTc Maximum % Change” value ([1]; 110 mg capsule) was 5 h, the “QTc Percent Change Segment 1 (0-6 hours)” value ([1]; 110 mg capsule) was “+5%” and the “QTc Percent Change Segment 2 (7-24 hours)” value ([1]; 110 mg capsule) was “+1%”. For the same molecule, the “QTc change Segment 1 (0-6 hours)” value ([1]; 110 mg capsule) was 12 ms, the “QTc change Segment 2 (7-24 hours)” value ([1]; 110 mg capsule) was 2 ms and the “QTc Maximum % Change” value ([1]; 110 mg capsule, statistically significant) was 10%. For the same molecule, the “Time of QTc Maximum % Change” value ([1]; 385 mg capsule) was 6 h, the “QTc Percent Change Segment 1 (0-6 hours)” value ([1]; 385 mg capsule) was “+8%” and the “QTc Percent Change Segment 2 (7-24 hours)” value ([1]; 385 mg capsule) was “+6%”. For the same molecule, the “QTc change Segment 1 (0-6 hours)” value ([1]; 385 mg capsule) was 17 ms, the “QTc change Segment 2 (7-24 hours)” value ([1]; 385 mg capsule) was 13 ms and the “QTc Maximum % Change” value ([1]; 385 mg capsule, statistically significant) was 13%. For the same molecule, the “Duration of Effect (hours post dose)” value ([1]; 20 mg capsule) was 1.5-12 hours post dose and the “Duration of Effect (hours post dose)” value ([1]; 110 mg capsule) was 0.5-12 hours post dose.
For `O=c1[nH]c2ccccc2n1CCCN1CCC(n2c(=O)[nH]c3cc(Cl)ccc32)CC1` [domperidone, 5-chloro-1-(1-[3-(2-oxo-2,3-dihydro-1H-benzo[d]imidazol-1-yl)propyl]piperidin-4-yl)-1H-benzo[d]imidazol-2(3H)-one], the MRT last [2] was 5 h, the “QTc Maximum % Change” value ([3]; 1 mg/kg gavage) was 6% and the “Time of QTc Maximum % Change” value ([3]; 1 mg/kg gavage) was 2 h. For the same molecule, the “QTc Percent Change Segment 1 (0-6 hours)” value ([3]; 1 mg/kg gavage) was “+6%”, the “QTc Percent Change Segment 2 (7-24 hours)” value ([3]; 1 mg/kg gavage) was “+2%” and the “QTc change Segment 1 (0-6 hours)” value ([3]; 1 mg/kg gavage) was 13 ms. The “QTc change Segment 2 (7-24 hours)” value ([3]; 1 mg/kg gavage) was 4 ms, the “Time of QTc Maximum % Change” value ([3]; 5 mg/kg gavage) was 2 h and the “QTc Percent Change Segment 1 (0-6 hours)” value ([3]; 5 mg/kg gavage) was “+11%”. For the same molecule, the “QTc Percent Change Segment 2 (7-24 hours)” value ([3]; 5 mg/kg gavage) was “+7%”, the “QTc change Segment 1 (0-6 hours)” value ([3]; 5 mg/kg gavage) was 23 ms and the “QTc change Segment 2 (7-24 hours)” value ([3]; 5 mg/kg gavage) was 15 ms. For the same molecule, the “QTc Maximum % Change” value ([3]; 5 mg/kg gavage, statistically significant) was 11%, the “QTcVdW increase (Van de Water formula)” value ([3]; 5 mg/kg) was “up to 23 msec” and the “Time of QTc Maximum % Change” value ([3]; 20 mg/kg gavage) was 2 h. For the same molecule, the “QTc Percent Change Segment 1 (0-6 hours)” value ([3]; 20 mg/kg gavage) was “+10%”, the “QTc Percent Change Segment 2 (7-24 hours)” value ([3]; 20 mg/kg gavage) was “+7%” and the “QTc change Segment 1 (0-6 hours)” value ([3]; 20 mg/kg gavage) was 21 ms. For the same molecule, the “QTc change Segment 2 (7-24 hours)” value ([3]; 20 mg/kg gavage) was 16 ms, the “QTc Maximum % Change” value ([3]; 20 mg/kg gavage, statistically significant) was 10% and the “QTcVdW increase (Van de Water formula)” value ([3]; 20 mg/kg) was at most 21 ms. The “effect on QTc change, lower doses of non-deuterated formulation compared to higher doses of deuterated formulation” value ([3]; FIGS. 9 and 10, beagle dogs, in words) was “greater effect on QTc change”, the “Duration of Effect (hours post dose)” value ([3]; 1 mg/kg gavage) was 1-2 hours post dose and the “Duration of Effect (hours post dose)” value ([3]; 5 mg/kg gavage) was 0.5-6 hours post dose. For the same molecule, the “Duration of Effect (hours post dose)” value ([3]; 20 mg/kg gavage) was 0.5-4 hours post dose.
